{"source": "BigSolDB 2.1", "data": [{"smiles": "Brc1cn[nH]c1", "values": [{"measurement": "solubility (mole fraction)", "setting": "in ethanol, 283.15 K", "value": 0.265}, {"measurement": "solubility (mole fraction)", "setting": "in ethanol, 285.65 K", "value": 0.275}, {"measurement": "solubility (mole fraction)", "setting": "in ethanol, 288.15 K", "value": 0.287}, {"measurement": "solubility (mole fraction)", "setting": "in ethanol, 290.65 K", "value": 0.299}, {"measurement": "solubility (mole fraction)", "setting": "in ethanol, 293.15 K", "value": 0.311}, {"measurement": "solubility (mole fraction)", "setting": "in ethanol, 295.65 K", "value": 0.325}, {"measurement": "solubility (mole fraction)", "setting": "in ethanol, 298.15 K", "value": 0.339}, {"measurement": "solubility (mole fraction)", "setting": "in ethanol, 300.65 K", "value": 0.354}, {"measurement": "solubility (mole fraction)", "setting": "in ethanol, 303.15 K", "value": 0.372}, {"measurement": "solubility (mole fraction)", "setting": "in ethanol, 305.65 K", "value": 0.39}, {"measurement": "solubility (mole fraction)", "setting": "in ethanol, 308.15 K", "value": 0.409}, {"measurement": "solubility (mole fraction)", "setting": "in ethanol, 310.65 K", "value": 0.431}, {"measurement": "solubility (mole fraction)", "setting": "in ethanol, 313.15 K", "value": 0.457}, {"measurement": "solubility (mole fraction)", "setting": "in ethanol, 315.65 K", "value": 0.481}, {"measurement": "solubility (mole fraction)", "setting": "in ethanol, 318.15 K", "value": 0.506}, {"measurement": "solubility (mole fraction)", "setting": "in methanol, 283.15 K", "value": 0.203}, {"measurement": "solubility (mole fraction)", "setting": "in methanol, 285.65 K", "value": 0.218}, {"measurement": "solubility (mole fraction)", "setting": "in methanol, 288.15 K", "value": 0.234}, {"measurement": "solubility (mole fraction)", "setting": "in methanol, 290.65 K", "value": 0.252}, {"measurement": "solubility (mole fraction)", "setting": "in methanol, 293.15 K", "value": 0.27}, {"measurement": "solubility (mole fraction)", "setting": "in methanol, 295.65 K", "value": 0.292}, {"measurement": "solubility (mole fraction)", "setting": "in methanol, 298.15 K", "value": 0.312}, {"measurement": "solubility (mole fraction)", "setting": "in methanol, 300.65 K", "value": 0.333}, {"measurement": "solubility (mole fraction)", "setting": "in methanol, 303.15 K", "value": 0.355}, {"measurement": "solubility (mole fraction)", "setting": "in methanol, 305.65 K", "value": 0.379}, {"measurement": "solubility (mole fraction)", "setting": "in methanol, 308.15 K", "value": 0.402}, {"measurement": "solubility (mole fraction)", "setting": "in methanol, 310.65 K", "value": 0.426}, {"measurement": "solubility (mole fraction)", "setting": "in methanol, 313.15 K", "value": 0.452}, {"measurement": "solubility (mole fraction)", "setting": "in methanol, 315.65 K", "value": 0.479}, {"measurement": "solubility (mole fraction)", "setting": "in methanol, 318.15 K", "value": 0.503}, {"measurement": "solubility (mole fraction)", "setting": "in water, 283.15 K", "value": 0.0048}, {"measurement": "solubility (mole fraction)", "setting": "in water, 285.65 K", "value": 0.00501}, {"measurement": "solubility (mole fraction)", "setting": "in water, 288.15 K", "value": 0.00532}, {"measurement": "solubility (mole fraction)", "setting": "in water, 290.65 K", "value": 0.00562}, {"measurement": "solubility (mole fraction)", "setting": "in water, 293.15 K", "value": 0.00591}, {"measurement": "solubility (mole fraction)", "setting": "in water, 295.65 K", "value": 0.00623}, {"measurement": "solubility (mole fraction)", "setting": "in water, 298.15 K", "value": 0.0066}, {"measurement": "solubility (mole fraction)", "setting": "in water, 300.65 K", "value": 0.00696}, {"measurement": "solubility (mole fraction)", "setting": "in water, 303.15 K", "value": 0.00733}, {"measurement": "solubility (mole fraction)", "setting": "in water, 305.65 K", "value": 0.00772}, {"measurement": "solubility (mole fraction)", "setting": "in water, 308.15 K", "value": 0.00809}, {"measurement": "solubility (mole fraction)", "setting": "in water, 310.65 K", "value": 0.00848}, {"measurement": "solubility (mole fraction)", "setting": "in water, 313.15 K", "value": 0.00895}, {"measurement": "solubility (mole fraction)", "setting": "in water, 315.65 K", "value": 0.00941}, {"measurement": "solubility (mole fraction)", "setting": "in water, 318.15 K", "value": 0.00987}]}]}
